Experimental data from patent US10800792B2, “Inhibitors of Bruton's tyrosine kinase and method of their use” (JANSSEN PHARMACEUTICA NV, priority 2015, dated 2020).

molecular target: unphosphorylated-BTK kinase domain (UP-BTK), GST-tagged human BTK (389-659aa) (Homo sapiens (Human), UniProt Q06187); test: BTK kinase Lanthascreen binding assay; conditions: Lanthascreen tracer competition, 60 minutes incubation; pIC50 = negative log of the IC50 in molar
Summary of the method: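 Lanthascreen competition binding; test compound vs fluorescent tracer on unphosphorylated BTK. Output: pIC50 (−log IC50, M).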

unphosphorylated-BTK kinase domain (UP-BTK), GST-tagged human BTK (389-659aa), sequence (Q06187 389-659): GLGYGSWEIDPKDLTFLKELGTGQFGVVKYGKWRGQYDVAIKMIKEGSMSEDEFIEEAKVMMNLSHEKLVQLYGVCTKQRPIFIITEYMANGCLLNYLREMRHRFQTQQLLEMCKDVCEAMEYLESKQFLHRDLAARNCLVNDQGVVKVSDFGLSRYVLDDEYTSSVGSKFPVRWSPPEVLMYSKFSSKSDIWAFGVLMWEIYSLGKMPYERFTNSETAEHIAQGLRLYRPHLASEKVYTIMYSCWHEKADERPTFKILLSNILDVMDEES

First: C=CC(=O)N1CCC[C@@H](NC(=O)c2sc3nccc4c3c2NC(=O)N4c2ccc(Oc3cccnc3C)cc2C)C1 [Example 773, (R)—N-(1-Acryloylpiperidin-3-yl)-5-(2-methyl-4-((2-methylpyridin-3-yl)oxy)phenyl)-4-oxo-4,5-dihydro-3H-1-thia-3,5,8-triazaacenaphthylene-2-carboxamide]
Second: C=CC(=O)N1CCC[C@@H](NC(=O)c2sc3nccc4c3c2NC(=O)N4c2cc(OC(C)C)ccc2C)C1 [Example 640, (R)—N-(1-Acryloylpiperidin-3-yl)-5-(5-isopropoxy-2-methylphenyl)-4-oxo-4,5-dihydro-3H-1-thia-3,5,8-triazaacenaphthylene-2-carboxamide]
The “BTK_I_binding pIC50” value of the first is higher: 7.4 for the first, 5.6 for the second.

Compared with `O=C(N[C@@H]1CCCNC1)c1sc2nccc3c2c1NC(=O)N3c1cccc(OC2CCCCC2)c1` [Example 616, (R)-5-(3-(Cyclohexyloxy)phenyl)-4-oxo-N-(piperidin-3-yl)-4,5-dihydro-3H-1-thia-3,5,8-triazaacenaphthylene-2-carboxamide], `C=CC(=O)N1CCC[C@@H](NC(=O)c2sc3nccc4c3c2NC(=O)N4c2cccc(OC3CCC3)c2)C1` [Example 598] is higher in “BTK_I_binding pIC50” value: 6.1 for the first, 6.5 for the second.

Compared with `C=CC(=O)N1CC[C@@H](NC(=O)c2sc3nccc4c3c2NC(=O)N4c2ccc(Oc3cccnn3)cc2)C1` [Example 803, (R)—N-(1-Acryloylpyrrolidin-3-yl)-4-oxo-5-(4-(pyridazin-3-yloxy)phenyl)-4,5-dihydro-3H-1-thia-3,5,8-triazaacenaphthylene-2-carboxamide], `Cc1cc(Oc2ccccc2)ccc1N1C(=O)Nc2c(C(=O)N[C@@H]3CCCN(C(=O)/C(C#N)=C/C(C)(C)C)C3)sc3nccc1c23` (single isomer, unassigned) [Example 866, (R,E)-N-(1-(2-Cyano-4,4-dimethylpent-2-enoyl)piperidin-3-yl)-5-(*S)-(2-methyl-4-phenoxyphenyl)-4-oxo-4,5-dihydro-3H-1-thia-3,5,8-triazaacenaphthylene-2-carboxamide] is higher in “BTK_I_binding pIC50” value: 6.1 for the first, 7.3 for the second.

For `CC(C)Cc1ccc(N2C(=O)Nc3c(C(=O)N[C@@H]4CCCNC4)sc4nccc2c34)cc1` [Example 754, (R)-5-(4-Isobutylphenyl)-4-oxo-N-(piperidin-3-yl)-4,5-dihydro-3H-1-thia-3,5,8-triazaacenaphthylene-2-carboxamide], the “BTK_I_binding pIC50” value was less than 6.
For `O=C(N[C@@H]1CCCNC1)c1sc2nccc3c2c1NC(=O)N3c1ccnc(C2CCCCC2)c1` [Example 731, (R)-5-(2-Cyclohexylpyridin-4-yl)-4-oxo-N-(piperidin-3-yl)-4,5-dihydro-3H-1-thia-3,5,8-triazaacenaphthylene-2-carboxamide], the “BTK_I_binding pIC50” value was less than 6.

same assay, conditions: Lanthascreen tracer competition, 60 minutes incubation; pIC50 = negative log of the IC50 in molar; read-out: BTK_I_binding pIC50 (converted)

`C=CC(=O)N[C@H]1COC[C@H]1NC(=O)c1sc2nccc3c2c1NC(=O)N3c1cnc(Oc2ccccc2)cc1C` (single isomer, unassigned) [Example 668, N-(cis-4-Acrylamidotetrahydrofuran-3-yl)-5-(*)-(4-methyl-6-phenoxypyridin-3-yl)-4-oxo-4,5-dihydro-3H-1-thia-3,5,8-triazaacenaphthylene-2-carboxamide] showed an IC50 of 15.8 nM.

same assay, conditions: pIC50 = negative log of the IC50 in molar; 60 minutes incubation, 50 nM Tracer 236

Compared with `C=CC(=O)N1CC[C@@H](NC(=O)c2sc3nccc4c3c2NC(=O)N4c2ccc(Oc3cccc4ccoc34)cc2C)C1` [Example 22, (R)—N-(1-Acryloylpyrrolidin-3-yl)-5-(4-(benzofuran-7-yloxy)-2-methylphenyl)-4-oxo-4,5-dihydro-3H-1-thia-3,5,8-triazaacenaphthylene-2-carboxamide], `Cc1cc(Oc2ccccc2OC(F)(F)F)ccc1N1C(=O)Nc2c(C(=O)N[C@@H]3CCCN(C)C3)sc3nccc1c23` [Example 227, (R)-5-(2-Methyl-4-(2-(trifluoromethoxy)phenoxy)phenyl)-N-(1-methylpiperidin-3-yl)-4-oxo-4,5-dihydro-3H-1-thia-3,5,8-triazaacenaphthylene-2-carboxamide] is lower in “BTK_I_binding pIC50” value: 7.4 for the first, 6.5 for the second.

Compared with `Cc1cc(Oc2ccccc2)ccc1N1C(=O)Nc2c(C(=O)N[C@@H]3CCCN(C(=O)[C@@H]4CCNC4)C3)sc3nccc1c23` [Example 191, 5-(2-Methyl-4-phenoxyphenyl)-4-oxo-N—((R)-1-((R)-pyrrolidine-3-carbonyl)piperidin-3-yl)-4,5-dihydro-3H-1-thia-3,5,8-triazaacenaphthylene-2-carboxamide], `C=CC(=O)N1CCC[C@@H](NC(=O)c2sc3nccc4c3c2NC(=O)N4c2ccc(Cl)cc2)C1` [Example 256, (R)—N-(1-Acryloylpiperidin-3-yl)-5-(4-chlorophenyl)-4-oxo-4,5-dihydro-3H-1-thia-3,5,8-triazaacenaphthylene-2-carboxamide] is lower in “BTK_I_binding pIC50” value: 7.1 for the first, 6.6 for the second.

same assay, conditions: unphosphorylated-BTK kinase domain, 50 nM Tracer 236, 60 minutes; pIC50 = negative log of the IC50 in molar

Going from `CNC/C=C/C(=O)N1CC[C@@H](NC(=O)c2sc3nccc4c3c2NC(=O)N4c2ccc(Oc3ccccc3)cc2C)C1` [Example 377, (R,E)-5-(2-Methyl-4-phenoxyphenyl)-N-(1-(4-(methylamino)but-2-enoyl)pyrrolidin-3-yl)-4-oxo-4,5-dihydro-3H-1-thia-3,5,8-triazaacenaphthylene-2-carboxamide] to `Cc1cc(Oc2ccccc2)ccc1N1C(=O)Nc2c(C(=O)N[C@@H]3CCN(C(=O)/C=C/CN)C3)sc3nccc1c23` (single isomer, unassigned) [Example 520, (R,E)-N-(1-(4-Aminobut-2-enoyl)pyrrolidin-3-yl)-5-(*S)-(2-methyl-4-phenoxyphenyl)-4-oxo-4,5-dihydro-3H-1-thia-3,5,8-triazaacenaphthylene-2-carboxamide], the “BTK_I_binding pIC50” value rises from 7.5 to 8.1.

Compared with `Cc1cc(Oc2ccccc2)ccc1N1C(=O)Nc2c(C(=O)N[C@@H]3CCCN(C(=O)CCl)C3)sc3nccc1c23` [Example 396, (R)—N-(1-(2-Chloroacetyl)piperidin-3-yl)-5-(2-methyl-4-phenoxyphenyl)-4-oxo-4,5-dihydro-3H-1-thia-3,5,8-triazaacenaphthylene-2-carboxamide], `Cc1cc(Oc2ccccc2)ccc1N1C(=O)Nc2c(C(=O)N[C@@H]3CCCN(C(=O)/C(Cl)=C/CN)C3)sc3nccc1c23` [Example 550, (R,Z)—N-(1-(4-Amino-2-chlorobut-2-enoyl)piperidin-3-yl)-5-(2-methyl-4-phenoxyphenyl)-4-oxo-4,5-dihydro-3H-1-thia-3,5,8-triazaacenaphthylene-2-carboxamide] is lower in “BTK_I_binding pIC50” value: 7.8 for the first, 7.3 for the second.

First: Cc1cc(Oc2ccccc2)ccc1N1C(=O)Nc2c(C(=O)N[C@@H]3CCN(C(=O)/C=C/CN(C)C)C3)sc3nccc1c23 [Example 368, (R,E)-N-(1-(4-(Dimethylamino)but-2-enoyl)pyrrolidin-3-yl)-5-(2-methyl-4-phenoxyphenyl)-4-oxo-4,5-dihydro-3H-1-thia-3,5,8-triazaacenaphthylene-2-carboxamide]
Second: Cc1cc(Oc2ccccc2)ccc1N1C(=O)Nc2c(C(=O)N[C@@H]3CCCN(C(C)C)C3)sc3nccc1c23 (single isomer, unassigned) [Example 542, (R)—N-(1-Isopropylpiperidin-3-yl)-5-(*S)-(2-methyl-4-phenoxyphenyl)-4-oxo-4,5-dihydro-3H-1-thia-3,5,8-triazaacenaphthylene-2-carboxamide]
The “BTK_I_binding pIC50” value of the first is higher: 7.6 for the first, 7.2 for the second.

First: C=CC(=O)N1CC[C@@H](NC(=O)c2sc3nccc4c3c2NC(=O)N4c2ccccc2)C1 [Example 337, (R)—N-(1-Acryloylpyrrolidin-3-yl)-4-oxo-5-phenyl-4,5-dihydro-3H-1-thia-3,5,8-triazaacenaphthylene-2-carboxamide]
Second: C=CC(=O)N1CCC[C@@H](NC(=O)c2sc3nccc4c3c2NC(=O)N4c2cc3ccccc3s2)C1 [Example 427, (R)—N-(1-Acryloylpiperidin-3-yl)-5-(benzo[b]thiophen-2-yl)-4-oxo-4,5-dihydro-3H-1-thia-3,5,8-triazaacenaphthylene-2-carboxamide]
The “BTK_I_binding pIC50” value of the first is lower: 5.4 for the first, 6.3 for the second.

First: C=CC(=O)N1CCC[C@@H](NC(=O)c2sc3nccc4c3c2NC(=O)N4c2cccc(C(F)(F)F)c2)C1 [Example 288, (R)—N-(1-Acryloylpiperidin-3-yl)-4-oxo-5-(3-(trifluoromethyl)phenyl)-4,5-dihydro-3H-1-thia-3,5,8-triazaacenaphthylene-2-carboxamide]
Second: C=CC(=O)N1CCC[C@@H](NC(=O)c2sc3nccc4c3c2NC(=O)N4c2cccc(-c3cccc(F)c3F)c2)C1 [Example 498, (R)—N-(1-Acryloylpiperidin-3-yl)-5-(2′,3′-difluoro-[1,1′-biphenyl]-3-yl)-4-oxo-4,5-dihydro-3H-1-thia-3,5,8-triazaacenaphthylene-2-carboxamide]
The “BTK_I_binding pIC50” value of the first is lower: 6.2 for the first, 7.8 for the second.

First: C=CC(=O)N1CCC[C@@H](NC(=O)c2sc3nccc4c3c2NC(=O)N4c2cccc(-c3cccnc3)c2)C1 [Example 538, (R)—N-(1-Acryloylpiperidin-3-yl)-4-oxo-5-(3-(pyridin-3-yl)phenyl)-4,5-dihydro-3H-1-thia-3,5,8-triazaacenaphthylene-2-carboxamide]
Second: O=C(N[C@@H]1CCCNC1)c1sc2nccc3c2c1NC(=O)N3c1cccc(Cl)c1 [Example 336, (R)-5-(3-Chlorophenyl)-4-oxo-N-(piperidin-3-yl)-4,5-dihydro-3H-1-thia-3,5,8-triazaacenaphthylene-2-carboxamide]
The “BTK_I_binding pIC50” value of the first is higher: 7.0 for the first, 5.4 for the second.

In the case of `CCC(=O)N1CCC[C@@H](NC(=O)c2sc3nccc4c3c2NC(=O)N4c2ccc(Oc3ccccc3)cc2C)C1` (single isomer, unassigned) [Example 345, (R)-5-(*R)-(2-Methyl-4-phenoxyphenyl)-4-oxo-N-(1-propionylpiperidin-3-yl)-4,5-dihydro-3H-1-thia-3,5,8-triazaacenaphthylene-2-carboxamide], the “BTK_I_binding pIC50” value was less than 5.
